These results are taken from ChEMBL document CHEMBL5154930, “Design, Synthesis, and Biological Evaluations of DOT1L Peptide Mimetics Targeting the Protein-Protein Interactions between DOT1L and MLL-AF9/MLL-ENL” (J Med Chem, 2022).

Non-standard residues stand in square brackets, D forms with d. Residues, ends and D or L forms follow the SMILES beside them. *: point of attachment. X2 = c1ccc(-c2cn(CC3CCCCC3)c([C@@H]3CCCN3*)n2)cc1; Ala(cPent) = N[C@@H](CC1CCCC1)C(=O)O; Pentanoyl(4-Me) = CC(C)CCC(=O)*; Dap = NC[C@H](N)C(=O)O

Data set [1] has as its system KOPN-8. The data set is described as follows: cells. The note with it: Homo sapiens, KOPN-8, 192 h.
Description: Anticancer activity against human KOPN-8 cells harbouring MLL-ENL assessed as inhibition of cell growth treated for 8 days measured by CCK-8 kit method
Data set [2] in a line: Apparent permeability across apical to basolateral side in human Caco-2 cells. The data set is classed as ADME, cell-based. (In general: Caco-2 cells form a polarised layer with tight junctions and transporters.)
The nature of data set [3]: Stability in human plasma assessed as compound remaining measured upto 1440 mins by HPLC analysis. The class given is ADME, cell-free. The note with it: read-out: Stability.
The target in data set [4] is T1, Protein ENL (Homo sapiens, UniProt Q03111).
T1 sequence (Q03111 whole entry): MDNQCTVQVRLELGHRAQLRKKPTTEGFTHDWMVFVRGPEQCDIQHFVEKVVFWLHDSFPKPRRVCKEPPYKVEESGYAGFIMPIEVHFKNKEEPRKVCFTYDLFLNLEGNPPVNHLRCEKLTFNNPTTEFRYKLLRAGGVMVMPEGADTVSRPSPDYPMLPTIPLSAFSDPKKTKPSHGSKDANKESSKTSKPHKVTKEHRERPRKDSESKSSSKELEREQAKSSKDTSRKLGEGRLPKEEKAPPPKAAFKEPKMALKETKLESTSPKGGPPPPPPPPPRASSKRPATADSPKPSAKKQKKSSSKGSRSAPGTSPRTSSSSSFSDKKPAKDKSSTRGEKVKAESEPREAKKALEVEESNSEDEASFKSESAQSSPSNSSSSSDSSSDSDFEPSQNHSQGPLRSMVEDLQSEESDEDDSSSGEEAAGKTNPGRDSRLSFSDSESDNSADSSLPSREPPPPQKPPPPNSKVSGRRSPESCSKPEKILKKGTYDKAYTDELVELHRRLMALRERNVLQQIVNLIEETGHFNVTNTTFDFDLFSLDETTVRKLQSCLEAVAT
The data set is described as follows: Binding affinity to MBP-tagged human recombinant ENL (489 to 559 residues) incubated for 40 mins by measuring fluorescence polarization by microplate reader method. (Polarisation of emitted light reports the rotation of a fluorescent probe.)

The subject of data set [5] is MOLM-13. The data set is described as follows: cells. The note with it: Homo sapiens, MOLM-13, 192 h.
Description: Anticancer activity against human MOLM-13 cells harbouring MLL-AF9 assessed as inhibition of cell growth treated for 8 days measured by CCK-8 kit method

In general, IC50 refers to the concentration that inhibits the measured activity by half. A lower IC50 goes with greater potency in that assay. The Papp A→B is the apparent permeability from the apical to the basolateral side of a cell layer. A word on the Ki: it is the dissociation constant of the complex between target and ligand, obtained from inhibition or displacement. In the case of `CC(C)CCC(=O)N1CCC[C@H]1C(=O)N[C@H](C(=O)N[C@@H](CN)C(=O)N[C@@H](CC1CCCC1)C(=O)N1CCC[C@H]1c1nc(-c2ccccc2)cn1CC1CCCCC1)C(C)C` ({Pentanoyl(4-Me)}-PV[Dap][Ala(cPent)]-X2), the IC50 was determined as 2210 nM in data set [1] and 3200 nM in data set [5]. The Papp A→B in data set [2] came out at 0.73 ×10⁻⁶ cm/s. In data set [3], the remaining at 24 h was 94%. For the same compound, the Ki in data set [4] amounted to 240 nM.
